Data: patent publication US20230295157A1, “3-(1H-IMIDAZOL-2-YL)-2,3,8,8A-TETRAHYDROINDOLIZIN-5(1H)-ONE DERIVATIVES USEFUL AS FACTOR XIA INHIBITORS” (JANSSEN PHARMACEUTICA NV, priority 2020, published 2023)
Read-outs that look alike come from different tables or passages of the source.

Tests used:
[1] = molecular target: Factor XIa (Homo sapiens (Human), UniProt P03951); assay: Factor XIa inhibition assay (FLINT) utilizing a fluorophore-quencher pair peptide substrate; assay type: biochemical; conditions: 30 min preincubation, kinetic reads over 30 min, read-out: FXIa Kin Inh IC50
Outline: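 FXIa ([…]) preincubated 30 min with compound (11-point 3-fold dilution, top 100 nM, 2% DMSO), then 15 μM quenched FXI Arg146-based peptide added; Tris pH 7.5, CaCl2, BSA, CHAPS. Fluorescence 485/520 nm read kinetically every 5 min over 30 min at RT; IC50 by 4-parameter fit.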

[2] = molecular target: human plasma kallikrein (Homo sapiens (Human), UniProt P03952); assay: Kallikrein inhibition assay (FLINT) utilizing a quenched AMC peptide substrate; assay type: biochemical; conditions: 30 min preincubation, read-out: Kallikrein Kin Inh IC50
Outline: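 Enzyme (2 nM final) pre-incubated 30 min at room temperature with compound (11-point, 3-fold, top 1 μM, 2% DMSO), then 50 μM Z-Gly-Pro-Arg-AMC added in Tris pH 7.5 buffer. Kinetic fluorescence 340/440 nm every 5 min over 30 min; IC50 from 4-parameter logistic fit.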

[3] = 5Fam-KLTRAETV-K5Tamra substrate 15 μM
[4] = kinetic reads over 30 min, Z-Gly-Pro-Arg-AMC substrate 50 μM
[5] = 5Fam-[…]-K5Tamra substrate 15 μM

Sequence of Factor XIa (P03951 388-625): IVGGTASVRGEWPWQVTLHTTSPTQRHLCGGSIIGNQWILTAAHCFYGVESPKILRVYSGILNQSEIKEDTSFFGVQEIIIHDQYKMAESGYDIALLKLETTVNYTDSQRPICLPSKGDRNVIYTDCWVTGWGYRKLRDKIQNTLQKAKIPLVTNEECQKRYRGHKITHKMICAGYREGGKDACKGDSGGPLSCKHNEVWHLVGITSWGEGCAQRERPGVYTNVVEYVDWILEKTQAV
Sequence of Factor XIa (P03951 19-387 partner): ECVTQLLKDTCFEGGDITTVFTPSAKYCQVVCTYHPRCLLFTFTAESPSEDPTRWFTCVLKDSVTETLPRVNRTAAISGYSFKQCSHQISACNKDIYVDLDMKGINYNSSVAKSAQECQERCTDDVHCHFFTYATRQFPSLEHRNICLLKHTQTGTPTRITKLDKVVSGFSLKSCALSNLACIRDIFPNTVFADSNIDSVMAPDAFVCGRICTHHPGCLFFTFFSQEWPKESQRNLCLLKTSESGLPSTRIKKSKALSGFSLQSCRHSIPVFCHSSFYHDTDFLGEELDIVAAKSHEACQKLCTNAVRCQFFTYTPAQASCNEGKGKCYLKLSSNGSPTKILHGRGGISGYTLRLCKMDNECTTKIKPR
Sequence of human plasma kallikrein (P03952 391-638): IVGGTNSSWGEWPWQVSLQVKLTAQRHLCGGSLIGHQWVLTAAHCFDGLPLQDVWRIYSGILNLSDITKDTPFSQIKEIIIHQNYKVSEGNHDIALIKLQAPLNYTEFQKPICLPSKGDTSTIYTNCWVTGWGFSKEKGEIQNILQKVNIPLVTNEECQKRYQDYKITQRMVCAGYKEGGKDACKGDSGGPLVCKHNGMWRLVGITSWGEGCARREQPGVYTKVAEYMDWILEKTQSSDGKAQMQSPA
Sequence of human plasma kallikrein (P03952 20-390 partner): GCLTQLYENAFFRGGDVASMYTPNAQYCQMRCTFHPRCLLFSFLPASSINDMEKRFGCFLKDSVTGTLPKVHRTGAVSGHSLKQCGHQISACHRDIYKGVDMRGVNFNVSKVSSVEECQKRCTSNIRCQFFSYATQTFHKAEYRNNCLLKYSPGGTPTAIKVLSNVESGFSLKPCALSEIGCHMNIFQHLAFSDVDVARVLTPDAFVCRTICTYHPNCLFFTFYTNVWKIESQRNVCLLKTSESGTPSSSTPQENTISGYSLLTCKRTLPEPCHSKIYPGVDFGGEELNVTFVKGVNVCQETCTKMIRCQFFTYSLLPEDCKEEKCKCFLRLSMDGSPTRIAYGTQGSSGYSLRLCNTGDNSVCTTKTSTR

O=C1C=C(c2c(-n3cnnn3)ccc(Cl)c2F)C[C@@H]2CC[C@@H](c3ncc(-c4ccc5[nH]c(=O)ccc5c4)[nH]3)N12 [Example 270, 6-[2-[(3S,8aS)-7-[3-Chloro-2-fluoro-6-(tetrazol-1-yl)phenyl]-5-oxo-2,3,8,8a-tetrahydro-1H-indolizin-3-yl]-1H-imidazol-5-yl]-1H-quinolin-2-one]
IC50 [1, 3]: 0.2 nM | IC50 [2, 4]: 0.0004 µM

O=C1C=C(c2c(-n3cnnn3)ccc(Cl)c2F)C[C@H]2CC[C@@H](c3ncc(-c4ccnc5[nH]ccc45)[nH]3)N12 (single isomer, unassigned) [Example 362, (3S,8aR*)-3-(5-(1H-pyrrolo[2,3-b]pyridin-4-yl)-1H-imidazol-2-yl)-7-(3-chloro-2-fluoro-6-(1H-tetrazol-1-yl)phenyl)-2,3,8,8a-tetrahydroindolizin-5(1H)-one]
IC50 [1, 3]: 0.1 nM | IC50 [2, 4]: 0.0025 µM

[2H][C@]12CC[C@@H](c3ncc(-c4ccnc(CO)c4F)[nH]3)N1C(=O)C=C(c1c(-n3cnnn3)ccc(Cl)c1F)C2 (relative stereo) [Example 47, (3S,8aR*)-7-(3-Chloro-2-fluoro-6-(1H-tetrazol-1-yl)phenyl)-3-(5-(3-fluoro-2-(hydroxymethyl)pyridin-4-yl)-1H-imidazol-2-yl)-2,3,8,8a-tetrahydroindolizin-5(1H)-one-8a-d]
IC50 [1, 5]: 5.7 nM | IC50 [2, 4]: 0.0426 µM

Cc1cc(C(=O)Nc2nccc(-c3cnc([C@@H]4CC[C@@H]5CC(c6c(-n7cnnn7)ccc(Cl)c6F)=CC(=O)N54)[nH]3)c2F)on1 [Example 5, N-[4-[2-[(3S,8aR)-7-[3-Chloro-2-fluoro-6-(tetrazol-1-yl)phenyl]-5-oxo-2,3,8,8a-tetrahydro-1H-indolizin-3-yl]-1H-imidazol-5-yl]-3-fluoro-2-pyridyl]-3-methyl-isoxazole-5-carboxamide]
IC50 [1, 3]: 4.2 nM | IC50 [2, 4]: 0.0488 µM

NC(=O)c1scc(-c2c[nH]c([C@@H]3CC[C@@H]4CC(c5c(-n6cnnn6)ccc(Cl)c5F)=CC(=O)N43)n2)c1F [Example 214, 4-(2-((3S,8aR)-7-(3-Chloro-2-fluoro-6-(1H-tetrazol-1-yl)phenyl)-5-oxo-1,2,3,5,8,8a-hexahydroindolizin-3-yl)-1H-imidazol-4-yl)-3-fluorothiophene-2-carboxamide]
IC50 [1, 3]: 1.4 nM | IC50 [2, 4]: 0.0017 µM

O=C1C=C(c2c(-n3cnnn3)ccc(Cl)c2F)C[C@H]2CC[C@@H](c3nc(-c4ccnc(-c5ccn[nH]5)c4F)c[nH]3)N12 (single isomer, unassigned) [Example 115, (3S,8a*R)-7-(3-chloro-2-fluoro-6-(1H-tetrazol-1-yl)phenyl)-3-(4-(3-fluoro-2-(1H-pyrazol-5-yl)pyridin-4-yl)-1H-imidazol-2-yl)-2,3,8,8a-tetrahydroindolizin-5(1H)-one]
IC50 [1, 3]: 1.5 nM | IC50 [2, 4]: 0.0019 µM

Cn1c(=O)[nH]c2ccc(-c3cnc([C@@H]4CC[C@H]5CC(c6c(-n7cnnn7)ccc(Cl)c6F)=CC(=O)N54)[nH]3)cc21 (relative stereo) [Example 299, 6-(2-((3S,8aS*)-7-(3-Chloro-2-fluoro-6-(1H-tetrazol-1-yl)phenyl)-5-oxo-1,2,3,5,8,8a-hexahydroindolizin-3-yl)-1H-imidazol-5-yl)-1-methyl-1H-benzo[d]imidazol-2(3H)-one]
IC50 [1, 5]: 5.2 nM | IC50 [2, 4]: 0.0056 µM

O=C1C=C(c2c(-n3cnnn3)ccc(Cl)c2F)C[C@H]2CC[C@@H](c3ncc(-c4ccnc(-c5ncc[nH]5)c4F)[nH]3)N12 [Example 2, (3S,8aR)-7-[3-Chloro-2-fluoro-6-(tetrazol-1-yl)phenyl]-3-[5-[3-fluoro-2-(1H-imidazol-2-yl)-4-pyridyl]-1H-imidazol-2-yl]-2,3,8,8a-tetrahydro-1H-indolizin-5-one]
IC50 [1, 3]: 1.9 nM | IC50 [2, 4]: 0.0093 µM

COCCNc1nccc(-c2cnc([C@@H]3CCC4CC(c5c(-n6cnnn6)ccc(Cl)c5F)=CC(=O)N43)[nH]2)c1F (stereo partly drawn) [Example 161, (3S)-7-(3-chloro-2-fluoro-6-(1H-tetrazol-1-yl)phenyl)-3-(5-(3-fluoro-2-((2-methoxyethyl)amino)pyridin-4-yl)-1H-imidazol-2-yl)-2,3,8,8a-tetrahydroindolizin-5(1H)-one]
IC50 [1, 3]: 0.5 nM | IC50 [2, 4]: 0.0019 µM

O=C1C=C(c2c(-n3cnnn3)ccc(Cl)c2F)C[C@H]2CC[C@@H](c3ncc(-c4ccnc(OC[C@@H]5COCCO5)c4F)[nH]3)N12 (single isomer, unassigned) [Example 157, (3*S,8aR)-3-(5-(2-(((S)-1,4-dioxan-2-yl)methoxy)-3-fluoropyridin-4-yl)-1H-imidazol-2-yl)-7-(3-chloro-2-fluoro-6-(1H-tetrazol-1-yl)phenyl)-2,3,8,8a-tetrahydroindolizin-5(1H)-one]
IC50 [1, 3]: 2 nM | IC50 [2, 4]: 0.0068 µM

O=C1C=C(c2c(-n3cnnn3)ccc(Cl)c2F)C[C@H]2CC[C@@H](c3ncc(-c4c[nH]c5ncncc45)[nH]3)N12 [Example 379, (3S,8aR)-3-(5-(7H-pyrrolo[2,3-d]pyrimidin-5-yl)-1H-imidazol-2-yl)-7-(3-chloro-2-fluoro-6-(1H-tetrazol-1-yl)phenyl)-2,3,8,8a-tetrahydroindolizin-5(1H)-one]
IC50 [1, 3]: 0.6 nM | IC50 [2, 4]: 0.0022 µM

O=C1C=C(c2c(-n3cc(Cl)nn3)ccc(Cl)c2F)C[C@H]2CC[C@@H](c3nc(-c4cc[nH]c(=O)c4F)c[nH]3)N12 [Example 200, (3S,8aR)-7-(3-chloro-6-(4-chloro-1H-1,2,3-triazol-1-yl)-2-fluorophenyl)-3-(4-(3-fluoro-2-oxo-1,2-dihydropyridin-4-yl)-1H-imidazol-2-yl)-2,3,8,8a-tetrahydroindolizin-5(1H)-one]
IC50 [1, 3]: 4.4 nM | IC50 [2, 4]: 0.0244 µM

CNc1ccc(-c2cnc([C@@H]3CCC4CC(c5c(-n6cnnn6)ccc(Cl)c5F)=CC(=O)N43)[nH]2)c(F)n1 (stereo partly drawn) [Example 368, (3S)-7-(3-chloro-2-fluoro-6-(1H-tetrazol-1-yl)phenyl)-3-(5-(2-fluoro-6-(methylamino)pyridin-3-yl)-1H-imidazol-2-yl)-2,3,8,8a-tetrahydroindolizin-5(1H)-one]
IC50 [1, 3]: 0.7 nM | IC50 [2, 4]: 0.0074 µM

[2H]c1nc([C@@H]2CC[C@]3([2H])CC(c4c(-n5cnnn5)ccc(Cl)c4F)=CC(=O)N23)[nH]c1-c1c(F)nc(N)c([2H])c1[2H] (single isomer, unassigned) [Example 132, (3S *,8aR*)-3-(5-(6-amino-2-fluoropyridin-3-yl-4,5-d2)-1H-imidazol-2-yl-4-d)-7-(3-chloro-2-fluoro-6-(1H-tetrazol-1-yl)phenyl)-2,3,8,8a-tetrahydroindolizin-5(1H)-one-8a-d]
IC50 [1, 5]: 0.4 nM | IC50 [2, 4]: 0.0068 µM

O=C1C=C(c2c(-n3cnnn3)ccc(Cl)c2F)C[C@H]2CC[C@@H](c3ncc(-c4ccnc(C5(O)CC5)c4Cl)[nH]3)N12 (relative stereo) [Example 155, (3*S,8aR)-3-(5-(3-chloro-2-(1-hydroxycyclopropyl)pyridin-4-yl)-1H-imidazol-2-yl)-7-(3-chloro-2-fluoro-6-(1H-tetrazol-1-yl)phenyl)-2,3,8,8a-tetrahydroindolizin-5(1H)-one]
IC50 [1, 5]: 4.9 nM | IC50 [2, 4]: 0.0524 µM

Nc1ccc(-c2cnc([C@@H]3CCC4CC(c5c(-c6ccn[nH]6)ccc(Cl)c5F)=CC(=O)N43)[nH]2)c(F)n1 (stereo partly drawn) [Example 363, (3S)-3-(5-(6-Amino-2-fluoropyridin-3-yl)-1H-imidazol-2-yl)-7-(3-chloro-2-fluoro-6-(1H-pyrazol-5-yl)phenyl)-2,3,8,8a-tetrahydroindolizin-5(1H)-one]
IC50 [1, 3]: > 100 nM | IC50 ([2]; μM, kinetic reads): > 1 µM

CC1=CCc2c(-c3cnc(C4CCC5CC(c6c(-n7cnnn7)ccc(Cl)c6F)=CC(=O)N54)[nH]3)ccnc21 (stereo not shown) [Example 374, 7-(3-chloro-2-fluoro-6-(1H-tetrazol-1-yl)phenyl)-3-(5-(7-methyl-5H-cyclopenta[b]pyridin-4-yl)-1H-imidazol-2-yl)-2,3,8,8a-tetrahydroindolizin-5(1H)-one]
IC50 [1, 3]: 0.8 nM | IC50 [2, 4]: 0.0015 µM

CCN(CCO)c1nccc(-c2cnc([C@@H]3CC[C@H]4CC(c5c(-n6cnnn6)ccc(Cl)c5F)=CC(=O)N43)[nH]2)c1F (single isomer, unassigned) [Example 135, (3S,8a*S)-7-(3-chloro-2-fluoro-6-(1H-tetrazol-1-yl)phenyl)-3-(5-(2-(ethyl(2-hydroxyethyl)amino)-3-fluoropyridin-4-yl)-1H-imidazol-2-yl)-2,3,8,8a-tetrahydroindolizin-5(1H)-one]
IC50 [1, 3]: 22.5 nM | IC50 [2, 4]: 0.0155 µM

CNC(=O)c1ccccc1-c1cnc([C@@H]2CCC3CC(c4c(-n5cnnn5)ccc(Cl)c4F)=CC(=O)N32)[nH]1 (stereo partly drawn) [Example 287, 2-(2-((3S)-7-(3-chloro-2-fluoro-6-(1H-tetrazol-1-yl)phenyl)-5-oxo-1,2,3,5,8,8a-hexahydroindolizin-3-yl)-1H-imidazol-5-yl)-N-methylbenzamide]
IC50 [1, 3]: ~30.4 nM | IC50 [2, 4]: 0.38 µM

CC(C)C(=O)Nc1ccccc1-c1c[nH]c([C@@H]2CCC3CC(c4c(-n5cnnn5)ccc(Cl)c4F)=CC(=O)N32)n1 (stereo partly drawn) [Example 329, N-(2-(2-((3S)-7-(3-Chloro-2-fluoro-6-(1H-tetrazol-1-yl)phenyl)-5-oxo-1,2,3,5,8,8a-hexahydroindolizin-3-yl)-1H-imidazol-4-yl)phenyl)isobutyramide]
IC50 [1, 3]: 0.5 nM | IC50 [2, 4]: 0.0013 µM
